Results reported in the supplement of paper PMC10307832.

Legend:
Assay in all cases: relative viability (nuclei count vs DMSO), 5 days (fraction); higher = more cells survive
201T = test system: 201T
How it was run: (§1)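 Relative viability divides the nuclei count in treated wells by that in vehicle wells. Lung cancer cell lines were seeded in 1536-well plates, dosed by pin tool the next day, and fixed and stained after 5 days in one step with final 0.05% Triton X-100, 1% formaldehyde and 1 ug/ml Hoechst. Dosing was a single drug or a fixed anchor-drug dose plus five library-drug doses (not always all listed) in √10 steps, and values are medians of duplicate plates imaged at 4×.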

ABC-1 = test system: ABC-1
How it was run: as §1

BEN = test system: BEN
How it was run: as §1

CAL-12T = test system: CAL-12T
How it was run: as §1

COR-L 105 = test system: COR-L 105
How it was run: as §1

EKVX = test system: EKVX
How it was run: as §1

HARA = test system: HARA
How it was run: as §1

HCC-366 = test system: HCC-366
How it was run: as §1

LK-2 = test system: LK-2
How it was run: as §1

LOU-NH91 = test system: LOU-NH91
How it was run: as §1

NCI-H1437 = test system: NCI-H1437
How it was run: as §1

NCI-H1650 = test system: NCI-H1650
How it was run: as §1

NCI-H1666 = test system: NCI-H1666
How it was run: as §1

NCI-H2009 = test system: NCI-H2009
How it was run: as §1

NCI-H2170 = test system: NCI-H2170
How it was run: as §1

NCI-H3122 = test system: NCI-H3122
How it was run: as §1

NCI-H441 = test system: NCI-H441
How it was run: as §1

NCI-H460 = test system: NCI-H460
How it was run: as §1

NCI-H661 = test system: NCI-H661
How it was run: as §1

NCI-H727 = test system: NCI-H727
How it was run: as §1

PC-14 = test system: PC-14
How it was run: as §1

SW 900 = test system: SW 900
How it was run: as §1

COc1nc(C)cnc1NS(=O)(=O)c1cccnc1-c1ccc(-c2nnco2)cc1 [Zibotentan] + COc1cccc2cc(-c3nc([C@H]4CC[C@H](C(=O)O)CC4)n4ncnc(N)c34)[nH]c12 [OSI-027] (partner 0.5 µM)
relative viability (201T; first compound 0.08 µM): 0.819 | relative viability (201T; first compound 0.253 µM): 0.699 | relative viability (201T; first compound 0.8 µM): 0.679 | relative viability (201T; first compound 2.53 µM): 0.755 | relative viability (ABC-1; first compound 0.08 µM): 0.608 | relative viability (ABC-1; first compound 0.253 µM): 0.542 | relative viability (ABC-1; first compound 0.8 µM): 0.53 | relative viability (ABC-1; first compound 2.53 µM): 0.527 | relative viability (BEN; first compound 0.08 µM): 0.301 | relative viability (BEN; first compound 0.253 µM): 0.286 | relative viability (BEN; first compound 0.8 µM): 0.27 | relative viability (BEN; first compound 2.53 µM): 0.261 | relative viability (CAL-12T; first compound 0.08 µM): 0.559 | relative viability (CAL-12T; first compound 0.253 µM): 0.551 | relative viability (CAL-12T; first compound 0.8 µM): 0.614 | relative viability (CAL-12T; first compound 2.53 µM): 0.629 | relative viability (COR-L 105; first compound 0.08 µM): 0.822 | relative viability (COR-L 105; first compound 0.253 µM): 0.618 | relative viability (COR-L 105; first compound 0.8 µM): 0.941 | relative viability (COR-L 105; first compound 2.53 µM): 0.909 | relative viability (EKVX; first compound 0.08 µM): 0.715 | relative viability (EKVX; first compound 0.253 µM): 0.706 | relative viability (EKVX; first compound 0.8 µM): 0.695 | relative viability (EKVX; first compound 2.53 µM): 0.77 | relative viability (HARA; first compound 0.08 µM): 0.42 | relative viability (HARA; first compound 0.253 µM): 0.462 | relative viability (HARA; first compound 0.8 µM): 0.437 | relative viability (HARA; first compound 2.53 µM): 0.715 | relative viability (HCC-366; first compound 0.08 µM): 0.922 | relative viability (HCC-366; first compound 0.253 µM): 0.884 | relative viability (HCC-366; first compound 0.8 µM): 0.389 | relative viability (HCC-366; first compound 2.53 µM): 1.1 | relative viability (LK-2; first compound 0.08 µM): 0.207 | relative viability (LK-2; first compound 0.253 µM): 0.173 | relative viability (LK-2; first compound 0.8 µM): 0.244 | relative viability (LK-2; first compound 2.53 µM): 0.216 | relative viability (LOU-NH91; first compound 0.08 µM): 0.673 | relative viability (LOU-NH91; first compound 0.253 µM): 0.681 | relative viability (LOU-NH91; first compound 0.8 µM): 0.732 | relative viability (LOU-NH91; first compound 2.53 µM): 0.784 | relative viability (NCI-H1437; first compound 0.08 µM): 0.845 | relative viability (NCI-H1437; first compound 0.253 µM): 0.84 | relative viability (NCI-H1437; first compound 0.8 µM): 0.855 | relative viability (NCI-H1437; first compound 2.53 µM): 0.919 | relative viability (NCI-H1650; first compound 0.08 µM): 0.579 | relative viability (NCI-H1650; first compound 0.8 µM): 0.644 | relative viability (NCI-H1650; first compound 2.53 µM): 0.716 | relative viability (NCI-H1666; first compound 0.08 µM): 0.929 | relative viability (NCI-H1666; first compound 0.253 µM): 0.751 | relative viability (NCI-H1666; first compound 0.8 µM): 0.814 | relative viability (NCI-H1666; first compound 2.53 µM): 0.877 | relative viability (NCI-H2009; first compound 0.08 µM): 0.677 | relative viability (NCI-H2009; first compound 0.253 µM): 0.632 | relative viability (NCI-H2009; first compound 0.8 µM): 0.711 | relative viability (NCI-H2009; first compound 2.53 µM): 0.754 | relative viability (NCI-H2170; first compound 0.08 µM): 0.702 | relative viability (NCI-H2170; first compound 0.253 µM): 0.761 | relative viability (NCI-H2170; first compound 0.8 µM): 0.64 | relative viability (NCI-H2170; first compound 2.53 µM): 0.791 | relative viability (NCI-H3122; first compound 0.08 µM): 1.01 | relative viability (NCI-H3122; first compound 0.8 µM): 0.915 | relative viability (NCI-H3122; first compound 2.53 µM): 0.957 | relative viability (NCI-H441; first compound 0.08 µM): 0.823 | relative viability (NCI-H441; first compound 0.253 µM): 0.404 | relative viability (NCI-H441; first compound 0.8 µM): 0.818 | relative viability (NCI-H441; first compound 2.53 µM): 0.752 | relative viability (NCI-H460; first compound 0.08 µM): 0.665 | relative viability (NCI-H460; first compound 0.253 µM): 0.408 | relative viability (NCI-H460; first compound 0.8 µM): 0.593 | relative viability (NCI-H460; first compound 2.53 µM): 0.66 | relative viability (NCI-H661; first compound 0.08 µM): 0.801 | relative viability (NCI-H661; first compound 0.253 µM): 0.671 | relative viability (NCI-H661; first compound 0.8 µM): 0.705 | relative viability (NCI-H661; first compound 2.53 µM): 0.756 | relative viability (NCI-H727; first compound 0.08 µM): 0.591 | relative viability (NCI-H727; first compound 0.253 µM): 0.499 | relative viability (NCI-H727; first compound 0.8 µM): 0.601 | relative viability (NCI-H727; first compound 2.53 µM): 0.696 | relative viability (PC-14; first compound 0.08 µM): 0.926 | relative viability (PC-14; first compound 0.253 µM): 0.651 | relative viability (PC-14; first compound 0.8 µM): 1.06 | relative viability (PC-14; first compound 2.53 µM): 0.929 | relative viability (SW 900; first compound 0.08 µM): 0.623 | relative viability (SW 900; first compound 0.253 µM): 0.607 | relative viability (SW 900; first compound 0.8 µM): 0.528 | relative viability (SW 900; first compound 2.53 µM): 0.496
